From PMC6158189, “A pharmacological probe identifies cystathionine β-synthase as a new negative regulator for ferroptosis” (Cell Death & Disease, 2018) come the findings set out here.

In one test the target is T1, hCBS Q222A (Homo sapiens, UniProt P35520, Q222A).
T1 construct: hCBS-413 (a C-terminal truncated hCBS 1–413); GST (N); made in house; host or cells: E. coli BL21
T1 sequence (P35520 1-413 Q222A): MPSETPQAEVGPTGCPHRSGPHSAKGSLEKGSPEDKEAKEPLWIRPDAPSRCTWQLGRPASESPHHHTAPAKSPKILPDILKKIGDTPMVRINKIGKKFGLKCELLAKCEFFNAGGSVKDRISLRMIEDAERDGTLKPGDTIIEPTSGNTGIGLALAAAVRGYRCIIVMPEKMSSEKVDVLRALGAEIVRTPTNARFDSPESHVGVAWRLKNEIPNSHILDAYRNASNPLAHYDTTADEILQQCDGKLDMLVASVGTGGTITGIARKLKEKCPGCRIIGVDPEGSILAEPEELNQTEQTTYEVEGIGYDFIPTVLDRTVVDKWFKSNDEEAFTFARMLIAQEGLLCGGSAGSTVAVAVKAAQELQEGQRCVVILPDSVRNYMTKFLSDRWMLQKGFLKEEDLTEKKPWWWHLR
Briefly: purified hCBS mutant enzyme assay. The class given is biochemical. The method, then: The IC50 values of CH004 for hCBS-413, hCBS-413 mutants, hCBS-FL, hCSE or hDDC were determined according to the standard assay conditions otherwise indicated.
Figure S6. […] HEK293T cells stably expressing CBS Q222A mutant (293T-CBS Q222A) were treated with 0 (DMSO control), 5 or 10 μM CH004 for 8 h before staining with the AzMC to detect H2S. The overlaid images of fluorescent and bright-field images are shown in the left panel, and the corresponding fluorescent (blue, H2S) and bright-field images are shown in the middle and right panels, respectively. Bars: 50 μm. [picture] Figure S7. The CH004-insensitive CBS Q222A mutant can be inhibited by HA. (A) HEK293T cells stably expressing CBS Q222A mutant (293T-CBS Q222A) were treated with 0 (DMSO, control), 5 or 10 μM of CH004, 1 mM or 2 mM of HA for 8 h before staining with the AzMC to detect H2S. The overlaid images of fluorescent and bright-field images are shown in the upper panel, and the corresponding fluorescent (blue, H2S) and bright-field images are shown in the middle and lower panels, respectively. Bars: 50 μm. (B) Quantification of the mean fluorescent density of H2S (blue). The intensity of blue light of the fluorescent images was quantified by ImageJ software, quantified and deduced the background signal in HEK293T-EV cells (Supplementary Figure S3B), normalized by the corresponding cell area and expressed as percentages of control (DMSO group, 100%). Means ± SDs (n=3). One-way ANOVA with Bonferroni post-tests was used for the analysis. *, p< 0.05; **, p< 0.01; n.s. no significance. The images are one representative from three independent experiments. (C) The inhibitory effect of 1 mM HA on purified CBS Q222A mutant. The assay was performed using 60 mM Cys and 1.2 μM CBS-413 Q222A mutant. The data were expressed as percentages of control (DMSO, 100%). Means ± SDs (n=4). [picture]
Table S2. Inhibitory effects of CH004 on hCBS WT and mutants.

In test [1] the test system is mouse embryonic fibroblasts (MEF). Briefly: lipid ROS (BODIPY 581/591 C11, flow cytometry). It is filed as cell-based. The note with it: low micromolar concentrations, 24 h. The method, then:
To detect lipid peroxidation upon treatment with CH004, HepG2 cells or mouse embryonic fibroblasts (MEF) were seeded in 12-well plates with ~ 1.8 × 10^5 cells per well for 24 h. After treatment with the inhibitor for another 24 h, cells were stained with BODIPY® 581/591 C11 (Invitrogen) for 1 h at a final concentration of 2 μM at 37 °C[57]. The cells were then resuspended in an appropriate amount of PBS after being washed once with PBS. Lipid peroxidation, i.e., lipid ROS, was analyzed by detection of the fluorescence using an LSR Fortessa flow cytometer. The data were recorded at 530/30 nm (green fluorescent) and 670/30 nm (red fluorescent) wavelengths after excitation at 488 nm. A minimum of 20000 events was used for the analysis. All the experiments were independently repeated twice in triplicate.
Figure S15. The mode of actions for CH004 in cells. […] Indicated HEK293T stable cell lines were treated with CH004 at a concentration of 10 µM for 24 h, and the cell viability was then measured using the CellTiter96® Aqueous One Solution Cell Proliferation Assay (Promega). Means ± SDs (n=3). (B-C) CH004 or erastin triggers ferroptosis in mouse embryonic fibroblasts (MEF). […] The cell viability was accordingly quantified using the CellTiter96® Aqueous One Solution Cell Proliferation Assay (Promega) and the results were shown as percentages of DMSO (control, 100%). […]

Molecules are shown by their SMILES.

`Cn1nc(Cc2ccccc2)nc2c(=O)n(C)c(=O)nc1-2` [CH004, 3-benzyl-1,6-dimethylpyrimido[5,4-e][1,2,4]triazine-5,7(1H,6H)-dione]: on hCBS Q222A, the IC50 was 27.6 ± 0.9 µM and the “IC50 fold to WT, Q222A” value came out at 23. In addition, in test [1], the “induction of ferroptosis (lipid ROS) in MEF” value is recorded as about 2 fold.
